Reference: publication PMC12609579, “Acute Myeloid Leukemia: A Key Role of DGKα and DGKζ in Cell Viability” (Cells, 2025)

What was measured:
HL-60 cells = tested on: HL-60 cells; design: method as in PMID 37509516; conditions: cited from earlier work; for IC50: HL-60, 24 h, read-out: IC50 (cytotoxicity); for effect on viability: HL-60
HEL cells = tested on: HEL cells; design: method as in PMID 37509516; conditions: cited from earlier work; for IC50: 24 h, read-out: IC50 (cytotoxicity)
[1] = tested on: AML cell lines (HL-60, HEL, THP-1, K562); experiment: alamarBlue cell viability assay, AML cell line panel (serotonin receptor inhibitors); type: cell-based, human; conditions: 24 h; for effects on AML cell viability: increasing concentrations
Protocol: The alamarBlue assay was performed to assess cell viability in presence of chemical inhibitors. A total of 50,000 cells per well were seeded in a 96-wells plate in a volume of 100 μL of complete medium together with 10 μL of 10× concentrated inhibitor solution and then incubated for either 24 or 72 h. Each experimental condition was performed in technical quadruplicates, using cells treated with equal amounts of DMSO vehicle as control and medium alone as background. After incubation, alamarBlue was added to each well at a final concentration of 0.15 mg/mL. The fluorescence of the samples was measured 24 h later using a Spark 10 M Multimode Plate Reader (Tecan, Switzerland) with excitation and emission wavelengths of 535 nm and 590 nm, respectively. For dose–response curve fitting, fluorescence values were normalized according to the following formula:Viability (%) = [(sample mean fluorescence)/(DMSO control mean fluorescence)] ∗ 100 […]
Supplementary figure S3: Effects of serotonin receptor inhibitors on AML cell lines viability.
AML cells were treated with increasing concentration of the indicated inhibitor for 24 hours followed by alamarBlue viability assay for additional 24 hours. Experiments were run in quadruplicates. Data are the mean ± SEM of 4 or more experiments interpolated as [inhibitor] vs. % viability. […]

[2] = biological target: serotonin 5-HT2A receptor; conditions: cited from earlier work

Cc1nc2sccn2c(=O)c1CCN1CCC(=C(c2ccccc2)c2ccc(F)cc2)CC1 [R59022]
IC50 (HL-60 cells): 32 µM
IC50 (HEL cells): 49 µM

O=c1c2ccccc2[nH]c(=S)n1CCN1CCC(=C(c2ccc(F)cc2)c2ccc(F)cc2)CC1 [R59949]
IC50 (HL-60 cells): 72 µM
IC50 (HEL cells): 80 µM

O=C(c1ccc(F)cc1)C1CCN(CCn2c(=S)[nH]c3ccccc3c2=O)CC1 [altanserin]
effects on AML cell viability [1]: negligible effects
Ki [2]: 0.00013 µM

CCN(CC)CCNC(=O)c1cc(Cl)c(N)cc1OC [metoclopramide]
highest reduction in viability ([1]; 100 μM): 11%
effects on AML cell viability [1]: negligible effects

Cc1ccc2c(C(=O)CN3CCN(C(=O)c4ccco4)CC3)c(C)[nH]c2c1 [AMB639752]
effect on viability (HL-60 cells): did not significantly affect viability
effect on viability (HEL cells): did not significantly affect viability

Cc1nc2n(c(=O)c1CCN1CCC(c3noc4cc(F)ccc34)CC1)CCCC2 [risperidone]
effects on AML cell viability [1]: negligible effects

O=C1/C(=C/C=C/c2ccco2)SC(=S)N1NS(=O)(=O)c1ccccc1 [CU-3]
effect on viability (HL-60 cells): did not significantly affect viability
effect on viability (HEL cells): did not significantly affect viability
